Results as given in article PMC7722985 (Biochemistry, 2015).
Blank lines part the entries; values can stand above or below the substance they belong to.

Columns and labels:
[1] = tested on: Taz2 domain of p300 (A1723-K1812/C1738A, C1746A, C1789A, C1790A); assay: ITC binding of p53; settings: for Ka: ITC, 20 mM Tris-HCl (pH 7.2), 100 mM NaCl, 2 mM β-mercaptoethanol, 35 °C, 1:1 binding model, performed at least twice, ND = No binding was detected
p300 Taz2 = settings: cited from earlier work
CBP Taz2 = settings: α1, α2, α3 surface of Taz2; cited from earlier work
Taz2 domain of p300 [2] = assay: pH dependence of p53 binding to Taz2 by ITC; settings: between pH 5.9 and 6.8; ITC at 35 °C; 100 mM Tris, 100 mM Bis-Tris, 100 mM acetate
Taz2 domain of p300 [3] = assay: Salt dependence of p53; format: binding; settings: ITC at 35 °C; similar pH values; 100 mM acetate as opposed to 100 mM NaCl
Taz2 S1741D = assay: ITC binding of p53; settings: ITC at 35 °C
Taz2 R1731A = assay: ITC binding of p53; settings: ITC at 35 °C
[4] = ITC at 35 °C, pH 7.2, 100 mM NaCl

Substance: p53 Q52E: p53(35–59) mutant peptide Q52E
- Ka [1]: (1.29 ± 0.35) × 10^6 M^−1

Substance: p53 TAD2: second transactivation subdomain of p53 (residues 40–61)
- effect of phosphorylation on Taz2 binding (p300 Taz2): unaffected by phosphorylation
- affinity for Taz2 (p300 Taz2; p53 TAD2 compared with p53 TAD1): tighter than that of p53 TAD1
- binding to CBP Taz2 (CBP Taz2): high affinity

Substance: p53(1–57): p53(1–57), both TAD subdomains
- overall affinity for Taz2 relative to single subdomains (p300 Taz2): overall affinity higher than that of either interaction alone

Substance: p53(1–39): p53 TAD1, residues 1–39 [reference compound]
- pH dependence of affinity for Taz2, pH 5.9 to 6.8 (Taz2 domain of p300 [2]): not dependent upon pH between pH 5.9 and 6.8

Substance: W53A/F54A double mutation of p53(25–65): W53A/F54A double mutation of p53(25–65)
- Taz2 binding of double mutant (p300 Taz2): abrogated Taz2 binding

Substance: p53 TAD1: first transactivation subdomain of p53 (residues 1–39)
- effect of phosphorylation on Taz2 binding (p300 Taz2): increased its affinity for p300 Taz2
- binding to CBP Taz2 (CBP Taz2): high affinity

Substance: p53(35–59): p53 TAD2 peptide, residues 35–59, synthesized by solid-phase method or expressed as GST fusion
- affinity in 100 mM acetate vs 100 mM NaCl (Taz2 domain of p300 [3]): significantly higher
- effect of Taz2 mutation on binding (Taz2 S1741D): did not affect binding
- effect of phosphorylation on Taz2 binding (p300 Taz2): does not significantly affect binding
- reduction in binding affinity vs wild-type Taz2 (Taz2 R1731A): 3 fold

Second part, the substance after the results:

- Ka [1]: (0.56 ± 0.13) × 10^6 M^−1
Substance: p53 E51Q: p53(35–59) with mutation of Glu51 to glutamine

- Ka [1]: (1.30 ± 0.05) × 10^6 M^−1
Substance: p53 pThr55: p53(35–59) phosphorylated at Thr55

- reduction in the association constant compared with wild-type p53 peptide [1, 4]: 55%
- Ka [1]: (0.53 ± 0.09) × 10^6 M^−1
Substance: p53 F54S: p53(35–59) with mutation of Phe54 to serine

- Ka [1]: (1.32 ± 0.05) × 10^6 M^−1
Substance: p53 M40A: p53(35–59) mutant peptide M40A

- Ka [1]: (0.60 ± 0.08) × 10^6 M^−1
Substance: p53 D48N: p53(35–59) with mutation of Asp48 to asparagine

- Ka [1]: (0.91 ± 0.04) × 10^6 M^−1
Substance: p53 L45A: p53(35–59) mutant peptide L45A

- weaker binding to Taz2 than wild-type [1, 4]: 3 fold
- Ka [1]: (0.31 ± 0.01) × 10^6 M^−1
Substance: p53 I50A: p53(35–59) mutant peptide I50A

- Ka [1]: (1.16 ± 0.10) × 10^6 M^−1
Substance: p53 T55A: p53(35–59) mutant peptide T55A

- detectable binding to Taz2 ([1]; ITC at 35 °C): loss of detectable binding
Substance: p53 W53Q: p53(35–59) with Trp53 mutated to glutamine (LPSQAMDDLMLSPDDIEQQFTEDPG)
